In patent publication US20250136596A1, “MEMBRANE-ASSOCIATED TYROSINE- AND THREONINE-SPECIFIC CDC2-INHIBITORY KINASE (PKMYT1) INHIBITORS AND USES THEREOF” (Insilico Medicine IP Limited, priority 2022, published 2025):

Biological target: PKMYT1 (Homo sapiens (Human), UniProt Q99640)
Test: PKMYT1 HTRF Assay
Format: binding
Conditions: Tracer 178, GST-Tb; compound 10 μM to 0.5 nM; read-out: MYT1 HTRF IC50
Experimental: Example A: PKMYT1 HTRF Assay
Compound serial dilution is performed by Echo, and the final concentrations vary from 10 μM to 0.5 nM. This was filled by the addition of 5 μL/well of Enzyme solution to the assay plate containing the compound. The plate was centrifuged at 1000 rpm for 1 minute, and incubate 15 minutes at 25 ? . Then 5 μL/well of tracer solution (Tracer 178) was added to initiate the reaction, and incubate for 60 minutes at 25° C. Next 5 μL GST-Tb was added into the assay plate, the plate was centrifuged at 1000 rpm for 1 minute, and incubate for 15 minutes at 25 ? . The assay plate was read on Envision.

Chain of PKMYT1 (Q99640 whole entry): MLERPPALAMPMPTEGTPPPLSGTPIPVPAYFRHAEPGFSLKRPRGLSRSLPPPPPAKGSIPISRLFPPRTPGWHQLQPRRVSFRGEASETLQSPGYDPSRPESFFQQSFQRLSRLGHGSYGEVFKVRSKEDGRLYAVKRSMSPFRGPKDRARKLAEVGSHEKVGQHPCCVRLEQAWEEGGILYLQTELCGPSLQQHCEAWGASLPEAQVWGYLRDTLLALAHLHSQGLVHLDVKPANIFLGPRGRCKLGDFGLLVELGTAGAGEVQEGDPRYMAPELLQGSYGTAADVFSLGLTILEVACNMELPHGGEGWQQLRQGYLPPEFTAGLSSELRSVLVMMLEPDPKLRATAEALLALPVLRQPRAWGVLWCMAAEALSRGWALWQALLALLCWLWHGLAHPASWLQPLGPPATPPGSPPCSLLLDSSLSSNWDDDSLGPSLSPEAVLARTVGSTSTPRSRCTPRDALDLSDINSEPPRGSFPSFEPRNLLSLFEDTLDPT

Q: For `Cc1ncc(-c2cc3c(C#N)c(-c4c(C)ccc(O)c4C)cnc3[nH]2)cn1` (atropisomer, axis not shown) [Example 32, (S)-5-(3-hydroxy-2,6-dimethylphenyl)-2-(2-methylpyrimidin-5-yl)-1H-pyrrolo[2,3-b]pyridine-4-carbonitrile], which IC50 is on record?
A: < 0.01 µM

Q: With `Cc1ncc(-c2[nH]c3ncc(-c4c(C)ccc(O)c4C)c(C#N)c3c2Cl)cn1` (atropisomer, axis not shown) [Example 33, (S)-3-chloro-5-(3-hydroxy-2,6-dimethylphenyl)-2-(2-methylpyrimidin-5-yl)-1H-pyrrolo[2,3-b]pyridine-4-carbonitrile] as the molecule, how does the IC50 read?
A: < 0.01 µM

Q: Which IC50 does the source give for `Cc1ncc(-c2cc3c(C#N)c(-c4c(C)ccc(O)c4C)cnc3[nH]2)c(C)n1` (atropisomer, axis not shown) [Example 77, (R)-2-(2,4-dimethylpyrimidin-5-yl)-5-(3-hydroxy-2,6-dimethylphenyl)-1H-pyrrolo[2,3-b]pyridine-4-carbonitrile] here?
A: 0.01 to 0.05 µM

Q: With `Cc1ccc(O)c(C)c1-c1cnc2[nH]c(-c3ccc(N4CCN(C)CC4)nc3C)nc2c1` [Example 1, 2,4-dimethyl-3-(2-(2-methyl-6-(4-methylpiperazin-1-yl)pyridin-3-yl)-3H-imidazo[4,5-b]pyridin-6-yl)phenol] as the molecule, how does the IC50 read?
A: 0.05 to 0.5 µM

Q: With `Cc1ccc(O)c(C)c1-c1cnc2[nH]c(-c3ccc(N4CCN(C)CC4)nc3C)nc2c1C` [Example 2, 2,4-dimethyl-3-(7-methyl-2-(2-methyl-6-(4-methylpiperazin-1-yl)pyridin-3-yl)-3H-imidazo[4,5-b]pyridin-6-yl)phenol] as the molecule, how does the IC50 read?
A: 0.5 to 5 µM

Q: For `Cc1ccc(O)c(C)c1-c1cnc2[nH]c(-c3ccc(N4CCN(C)CC4)nc3)c(C)c2c1` [Example 3, 2,4-dimethyl-3-(3-methyl-2-(6-(4-methylpiperazin-1-yl)pyridin-3-yl)-1H-pyrrolo[2,3-b]pyridin-5-yl)phenol], which IC50 is on record?
A: 0.05 to 0.5 µM

Q: How did the IC50 turn out when `Cc1ccc(O)c(C)c1-c1cnc2[nH]c(-c3ccc(N4CCN(C)CC4)nc3)cc2c1` [Example 4, 2,4-dimethyl-3-(2-(6-(4-methylpiperazin-1-yl)pyridin-3-yl)-1H-pyrrolo[2,3-b]pyridin-5-yl)phenol] was run?
A: 0.05 to 0.5 µM

Q: Which IC50 does the source give for `Cc1ccc(-c2cc3cc(-c4c(C)ccc(O)c4C)cnc3[nH]2)cn1` [Example 5, 2,4-dimethyl-3-(2-(6-methylpyridin-3-yl)-1H-pyrrolo[2,3-b]pyridin-5-yl)phenol] here?
A: 0.01 to 0.05 µM

Q: Which IC50 does the source give for `CC(=O)N1CC=C(c2cc3cc(-c4c(C)ccc(O)c4C)cnc3[nH]2)CC1` [Example 6, 1-(4-(5-(3-hydroxy-2,6-dimethylphenyl)-1H-pyrrolo[2,3-b]pyridin-2-yl)-3,6-dihydropyridin-1 (2H)-yl)ethan-1-one] here?
A: 0.05 to 0.5 µM

Q: With `Cc1ncc(-c2cc3cc(-c4c(C)ccc(O)c4C)cnc3[nH]2)cn1` [Example 7, 2,4-dimethyl-3-(2-(2-methylpyrimidin-5-yl)-1H-pyrrolo[2,3-b]pyridin-5-yl)phenol] as the molecule, how does the IC50 read?
A: 0.01 to 0.05 µM

Q: How did the IC50 turn out when `COc1cncc(-c2cc3cc(-c4c(C)ccc(O)c4C)cnc3[nH]2)c1` [Example 8, 3-(2-(5-methoxypyridin-3-yl)-1H-pyrrolo[2,3-b]pyridin-5-yl)-2,4-dimethylphenol] was run?
A: 0.01 to 0.05 µM

Q: With `Cc1ccc(O)c(C)c1-c1cnc2[nH]c(-c3ccn(C)c(=O)c3)cc2c1` [Example 9, 4-(5-(3-hydroxy-2,6-dimethylphenyl)-1H-pyrrolo[2,3-b]pyridin-2-yl)-1-methylpyridin-2 (1H)-one] as the molecule, how does the IC50 read?
A: 0.01 to 0.05 µM

Q: With `Cc1ccc(-c2cc3c(Cl)c(-c4c(C)ccc(O)c4C)cnc3[nH]2)cn1` [Example 10, 3-(4-chloro-2-(6-methylpyridin-3-yl)-1H-pyrrolo[2,3-b]pyridin-5-yl)-2,4-dimethylphenol] as the molecule, how does the IC50 read?
A: < 0.01 µM

Q: How did the IC50 turn out when `Cc1ccc(-c2cc3nc(-c4c(C)ccc(O)c4C)cnc3[nH]2)cn1` [Example 11, 2,4-dimethyl-3-(6-(6-methylpyridin-3-yl)-5H-pyrrolo[2,3-b]pyrazin-2-yl)phenol] was run?
A: < 0.01 µM

Q: `Cc1ncc(-c2[nH]c3ncc(-c4c(C)ccc(O)c4C)nc3c2F)cn1` [Example 12, 3-(7-fluoro-6-(2-methylpyrimidin-5-yl)-5H-pyrrolo[2,3-b]pyrazin-2-yl)-2,4-dimethylphenol] was tested. Which IC50 did it give?
A: 0.01 to 0.05 µM

Q: How did the IC50 turn out when `Cc1ncc(-c2[nH]c3ncc(-c4c(C)ccc(O)c4C)nc3c2C)cn1` [Example 13, 2,4-dimethyl-3-(7-methyl-6-(2-methylpyrimidin-5-yl)-5H-pyrrolo[2,3-b]pyrazin-2-yl)phenol] was run?
A: 0.01 to 0.05 µM

Q: Which IC50 does the source give for `Cc1ccc(O)c(C)c1-c1cnc2[nH]c(-c3cnc(N)nc3)c(C#CC(C)(C)O)c2n1` [Example 14, 3-(6-(2-aminopyrimidin-5-yl)-7-(3-hydroxy-3-methylbut-1-yn-1-yl)-5H-pyrrolo[2,3-b]pyrazin-2-yl)-2,4-dimethylphenol] here?
A: < 0.01 µM

Q: For `Cc1ncc(-c2cc3nc(-c4c(C)ccc(O)c4C)cnc3[nH]2)cn1` [Example 15, 2,4-dimethyl-3-(6-(2-methylpyrimidin-5-yl)-5H-pyrrolo[2,3-b]pyrazin-2-yl)phenol], which IC50 is on record?
A: 0.01 to 0.05 µM

Q: `Cc1ncc(-c2[nH]c3ncc(-c4c(C)ccc(O)c4C)nc3c2Cl)cn1` [Example 16, 3-(7-chloro-6-(2-methylpyrimidin-5-y1)-5H-pyrrolo[2,3-b]pyrazin-2-yl)-2,4-dimethylphenol] was tested. Which IC50 did it give?
A: < 0.01 µM

Q: Which IC50 does the source give for `Cc1ccc(O)c(C)c1-c1cnc2[nH]c(-c3cnc(N4CC(C)(O)C4)nc3)c(Cl)c2n1` [Example 17, 1-(5-(7-chloro-2-(3-hydroxy-2,6-dimethylphenyl)-5H-pyrrolo[2,3-b]pyrazin-6-yl)pyrimidin-2-yl)-3-methylazetidin-3-ol] here?
A: < 0.01 µM

Q: `Cc1ccc(O)c(C)c1-c1cnc2[nH]c(-c3cnc(N4CC(O)C4)nc3)cc2n1` [Example 18, 1-(5-(2-(3-hydroxy-2,6-dimethylphenyl)-5H-pyrrolo[2,3-b]pyrazin-6-yl)pyrimidin-2-yl)azetidin-3-ol] was tested. Which IC50 did it give?
A: < 0.01 µM

Q: How did the IC50 turn out when `Cc1ncc(-c2cc3nc(-c4c(C)ccc(O)c4C)cnc3[nH]2)s1` [Example 19, 2,4-dimethyl-3-(6-(2-methylthiazol-5-y1)-5H-pyrrolo[2,3-b]pyrazin-2-yl)phenol] was run?
A: 0.01 to 0.05 µM

Q: For `Cc1ncc(-c2[nH]c3ncc(-c4c(C)ccc(O)c4C)nc3c2C#CC(C)(C)O)cn1` [Example 20, 3-(7-(3-hydroxy-3-methylbut-1-yn-1-yl)-6-(2-methylpyrimidin-5-yl)-5H-pyrrolo[2,3-b]pyrazin-2-yl)-2,4-dimethylphenol], which IC50 is on record?
A: < 0.01 µM

Q: How did the IC50 turn out when `Cc1ccc(O)c(C)c1-c1cnc2[nH]c(-c3cnc(N4C[C@@H]5C[C@H]4CO5)nc3)c(C#CC(C)(C)O)c2n1` [Example 21, 3-(6-(2-((1S,4S)-2-oxa-5-azabicyclo[2.2.1]heptan-5-yl)pyrimidin-5-yl)-7-(3-hydroxy-3-methylbut-1-yn-1-yl)-5H-pyrrolo[2,3-b]pyrazin-2-yl)-2,4-dimethylphenol] was run?
A: < 0.01 µM

Q: Which IC50 does the source give for `Cc1ccc(O)c(C)c1-c1cnc2[nH]c(-c3ccc4scnc4c3)cc2c1` [Example 22, 3-(2-(benzo[d]thiazol-5-yl)-1H-pyrrolo[2,3-b]pyridin-5-yl)-2,4-dimethylphenol] here?
A: 0.05 to 0.5 µM

Q: With `Cc1ncc(-c2[nH]c3ncc(-c4c(C)ccc(O)c4C)c(Cl)c3c2F)cn1` [Example 24, (S)-3-(4-chloro-3-fluoro-2-(2-methylpyrimidin-5-yl)-1H-pyrrolo[2,3-b]pyridin-5-yl)-2,4-dimethylphenol] as the molecule, how does the IC50 read?
A: < 0.01 µM

Q: Which IC50 does the source give for `Cc1ccc(O)c(C)c1-c1cnc2[nH]c(-c3cnc(N4CC(C)(O)C4)nc3)cc2c1Cl` [Example 25, (S)-1-(5-(4-chloro-5-(3-hydroxy-2,6-dimethylphenyl)-1H-pyrrolo[2,3-b]pyridin-2-yl)pyrimidin-2-yl)-3-methylazetidin-3-ol] here?
A: < 0.01 µM

Q: With `Cc1ncc(-c2cc3c(C)c(-c4c(C)ccc(O)c4C)cnc3[nH]2)cn1` [Example 26, (R)-2,4-dimethyl-3-(4-methyl-2-(2-methylpyrimidin-5-yl)-1H-pyrrolo[2,3-b]pyridin-5-yl)phenol] as the molecule, how does the IC50 read?
A: < 0.01 µM

Q: For `Cc1ncc(-c2[nH]c3ncc(-c4c(C)ccc(O)c4C)cc3c2C#N)cn1` [Example 27, 5-(3-hydroxy-2,6-dimethylphenyl)-2-(2-methylpyrimidin-5-yl)-1H-pyrrolo[2,3-b]pyridine-3-carbonitrile], which IC50 is on record?
A: 0.01 to 0.05 µM

Q: How did the IC50 turn out when `Cc1cnc(-c2cc3cc(-c4c(C)ccc(O)c4C)cnc3[nH]2)cn1` [Example 29, 2,4-dimethyl-3-(2-(5-methylpyrazin-2-yl)-1H-pyrrolo[2,3-b]pyridin-5-yl)phenol] was run?
A: 0.05 to 0.5 µM

Q: With `Cc1ncc(-c2cc3c(N)c(-c4c(C)ccc(O)c4C)cnc3[nH]2)cn1` [Example 30, 3-(4-amino-2-(2-methylpyrimidin-5-yl)-1H-pyrrolo[2,3-b]pyridin-5-yl)-2,4-dimethylphenol] as the molecule, how does the IC50 read?
A: 0.05 to 0.5 µM

Q: With `Cc1ncc(-c2cc3c(C(F)(F)F)c(-c4c(C)ccc(O)c4C)cnc3[nH]2)cn1` [Example 31, (R)-2,4-dimethyl-3-(2-(2-methylpyrimidin-5-yl)-4-(trifluoromethyl)-1H-pyrrolo[2,3-b]pyridin-5-yl)phenol] as the molecule, how does the IC50 read?
A: < 0.01 µM

Q: `Cc1ncc(-c2cc3c(C(N)=O)c(-c4c(C)ccc(O)c4C)cnc3[nH]2)cn1` [Example 34, 5-(3-hydroxy-2,6-dimethylphenyl)-2-(2-methylpyrimidin-5-yl)-1H-pyrrolo[2,3-b]pyridine-4-carboxamide] was tested. Which IC50 did it give?
A: 0.05 to 0.5 µM

Q: `Cc1ccc(O)c(C)c1-c1cnc2[nH]c(C3=CCCOC3)cc2c1C#N` [Example 36, 2-(5,6-dihydro-2H-pyran-3-yl)-5-(3-hydroxy-2,6-dimethylphenyl)-1H-pyrrolo[2,3-b]pyridine-4-carbonitrile] was tested. Which IC50 did it give?
A: 0.01 to 0.05 µM

Q: How did the IC50 turn out when `Cc1ccc(O)c(C)c1-c1cnc2[nH]c(-c3cnc(N4CCC(F)(F)C4)nc3)cc2c1C#N` [Example 37, 2-(2-(3,3-difluoropyrrolidin-1-yl)pyrimidin-5-yl)-5-(3-hydroxy-2,6-dimethylphenyl)-1H-pyrrolo[2,3-b]pyridine-4-carbonitrile] was run?
A: < 0.01 µM
